{"source": "PubChem BioAssay (NCI)", "experiment_in_all_cases": "DTP human tumour cell line panel, 48 h", "key": {"786-0 renal": {"test_system": "786-0 renal"}, "A498 renal": {"test_system": "A498 renal"}, "A549 NSCLC": {"test_system": "A549 NSCLC"}, "ACHN renal": {"test_system": "ACHN renal"}, "BT-549 breast": {"test_system": "BT-549 breast"}, "CAKI-1 renal": {"test_system": "CAKI-1 renal"}, "CCRF-CEM leukemia": {"test_system": "CCRF-CEM leukemia"}, "COLO 205 colon": {"test_system": "COLO 205 colon"}, "DU-145 prostate": {"test_system": "DU-145 prostate"}, "EKVX NSCLC": {"test_system": "EKVX NSCLC"}, "HCC-2998 colon": {"test_system": "HCC-2998 colon"}, "HCT-116 colon": {"test_system": "HCT-116 colon"}, "HCT-15 colon": {"test_system": "HCT-15 colon"}, "HL-60(TB) leukemia": {"test_system": "HL-60(TB) leukemia"}, "HOP-62 NSCLC": {"test_system": "HOP-62 NSCLC"}, "HOP-92 NSCLC": {"test_system": "HOP-92 NSCLC"}, "HS 578T breast": {"test_system": "HS 578T breast"}, "HT29 colon": {"test_system": "HT29 colon"}, "IGROV1 ovarian": {"test_system": "IGROV1 ovarian"}, "K-562 leukemia": {"test_system": "K-562 leukemia"}, "KM12 colon": {"test_system": "KM12 colon"}, "LOX IMVI melanoma": {"test_system": "LOX IMVI melanoma"}, "M14 melanoma": {"test_system": "M14 melanoma"}, "MALME-3M melanoma": {"test_system": "MALME-3M melanoma"}, "MCF7 breast": {"test_system": "MCF7 breast"}, "MDA-MB-231 breast": {"test_system": "MDA-MB-231 breast"}, "MDA-MB-435": {"test_system": "MDA-MB-435"}, "MDA-MB-468 breast": {"test_system": "MDA-MB-468 breast"}, "MOLT-4 leukemia": {"test_system": "MOLT-4 leukemia"}, "NCI-H226 lung": {"test_system": "NCI-H226 lung"}}, "note": "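Where inhibition never reached the appropriate level, the endpoint shown equals the highest concentration tested. Otherwise, values were interpolated linearly from a five-concentration, 48-hour dose response in 96-well plates. The concentration for 50% growth inhibition is given as GI50. TGI is the concentration that stops growth completely.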", "data": [{"smiles": "CSc1nc(-c2cccc(C)c2)c2cc(-c3ccccc3)n(C)c2n1", "values": [{"measurement": "GI50", "setting": "786-0 renal", "value": 14.5, "unit": "µM"}, {"measurement": "TGI", "setting": "786-0 renal", "value": 47.8, "unit": "µM"}, {"measurement": "GI50", "setting": "A498 renal", "value": 27, "unit": "µM"}, {"measurement": "TGI", "setting": "A498 renal", "value": 94.9, "unit": "µM"}, {"measurement": "GI50", "setting": "A549 NSCLC", "value": 7.01, "unit": "µM"}, {"measurement": "TGI", "setting": "A549 NSCLC", "value": "> 100", "unit": "µM"}, {"measurement": "GI50", "setting": "ACHN renal", "value": 12.9, "unit": "µM"}, {"measurement": "TGI", "setting": "ACHN renal", "value": 75.1, "unit": "µM"}, {"measurement": "GI50", "setting": "BT-549 breast", "value": 7.11, "unit": "µM"}, {"measurement": "TGI", "setting": "BT-549 breast", "value": 33.5, "unit": "µM"}, {"measurement": "GI50", "setting": "CAKI-1 renal", "value": 5.08, "unit": "µM"}, {"measurement": "TGI", "setting": "CAKI-1 renal", "value": "> 100", "unit": "µM"}, {"measurement": "GI50", "setting": "CCRF-CEM leukemia", "value": 4, "unit": "µM"}, {"measurement": "TGI", "setting": "CCRF-CEM leukemia", "value": 36.1, "unit": "µM"}, {"measurement": "GI50", "setting": "COLO 205 colon", "value": 7.28, "unit": "µM"}, {"measurement": "TGI", "setting": "COLO 205 colon", "value": 26.9, "unit": "µM"}, {"measurement": "GI50", "setting": "DU-145 prostate", "value": 18.1, "unit": "µM"}, {"measurement": "TGI", "setting": "DU-145 prostate", "value": "> 100", "unit": "µM"}, {"measurement": "GI50", "setting": "EKVX NSCLC", "value": 4.88, "unit": "µM"}, {"measurement": "TGI", "setting": "EKVX NSCLC", "value": 39.1, "unit": "µM"}, {"measurement": "GI50", "setting": "HCC-2998 colon", "value": 13.9, "unit": "µM"}, {"measurement": "TGI", "setting": "HCC-2998 colon", "value": 60.8, "unit": "µM"}, {"measurement": "GI50", "setting": "HCT-116 colon", "value": 4.17, "unit": "µM"}, {"measurement": "TGI", "setting": "HCT-116 colon", "value": 21.7, "unit": "µM"}, {"measurement": "GI50", "setting": "HCT-15 colon", "value": 4.9, "unit": "µM"}, {"measurement": "TGI", "setting": "HCT-15 colon", "value": 24.8, "unit": "µM"}, {"measurement": "GI50", "setting": "HL-60(TB) leukemia", "value": 3.54, "unit": "µM"}, {"measurement": "TGI", "setting": "HL-60(TB) leukemia", "value": 35.4, "unit": "µM"}, {"measurement": "GI50", "setting": "HOP-62 NSCLC", "value": 8.77, "unit": "µM"}, {"measurement": "TGI", "setting": "HOP-62 NSCLC", "value": 48.9, "unit": "µM"}, {"measurement": "GI50", "setting": "HOP-92 NSCLC", "value": 3.92, "unit": "µM"}, {"measurement": "TGI", "setting": "HOP-92 NSCLC", "value": 30.7, "unit": "µM"}, {"measurement": "GI50", "setting": "HS 578T breast", "value": 7, "unit": "µM"}, {"measurement": "TGI", "setting": "HS 578T breast", "value": 78.1, "unit": "µM"}, {"measurement": "GI50", "setting": "HT29 colon", "value": 3.98, "unit": "µM"}, {"measurement": "TGI", "setting": "HT29 colon", "value": 25.4, "unit": "µM"}, {"measurement": "GI50", "setting": "IGROV1 ovarian", "value": 6.43, "unit": "µM"}, {"measurement": "TGI", "setting": "IGROV1 ovarian", "value": "> 100", "unit": "µM"}, {"measurement": "GI50", "setting": "K-562 leukemia", "value": 3.13, "unit": "µM"}, {"measurement": "TGI", "setting": "K-562 leukemia", "value": "> 100", "unit": "µM"}, {"measurement": "GI50", "setting": "KM12 colon", "value": 5.41, "unit": "µM"}, {"measurement": "TGI", "setting": "KM12 colon", "value": 64.7, "unit": "µM"}, {"measurement": "GI50", "setting": "LOX IMVI melanoma", "value": 5.44, "unit": "µM"}, {"measurement": "TGI", "setting": "LOX IMVI melanoma", "value": 19.4, "unit": "µM"}, {"measurement": "GI50", "setting": "M14 melanoma", "value": 4.56, "unit": "µM"}, {"measurement": "TGI", "setting": "M14 melanoma", "value": 51.4, "unit": "µM"}, {"measurement": "GI50", "setting": "MALME-3M melanoma", "value": 9.16, "unit": "µM"}, {"measurement": "TGI", "setting": "MALME-3M melanoma", "value": 38.2, "unit": "µM"}, {"measurement": "GI50", "setting": "MCF7 breast", "value": 5.88, "unit": "µM"}, {"measurement": "TGI", "setting": "MCF7 breast", "value": 41.8, "unit": "µM"}, {"measurement": "GI50", "setting": "MDA-MB-231 breast", "value": 7.42, "unit": "µM"}, {"measurement": "TGI", "setting": "MDA-MB-231 breast", "value": 30.2, "unit": "µM"}, {"measurement": "GI50", "setting": "MDA-MB-435", "value": 2.86, "unit": "µM"}, {"measurement": "TGI", "setting": "MDA-MB-435", "value": 8.45, "unit": "µM"}, {"measurement": "GI50", "setting": "MDA-MB-468 breast", "value": 3.08, "unit": "µM"}, {"measurement": "TGI", "setting": "MDA-MB-468 breast", "value": 15.6, "unit": "µM"}, {"measurement": "GI50", "setting": "MOLT-4 leukemia", "value": 4.47, "unit": "µM"}, {"measurement": "TGI", "setting": "MOLT-4 leukemia", "value": 37.7, "unit": "µM"}, {"measurement": "GI50", "setting": "NCI-H226 lung", "value": 12.8, "unit": "µM"}]}]}
